Measured values published in publication PMC9497102, “Thiosemicarbazone Derivatives Developed to Overcome COTI-2 Resistance” (Cancers, 2022).
Marks after values point to notes of the source that are not given here.

Tests used:
[1] = system: SW480/Coti cells; experiment: MTT viability assay with ABCB1/ABCC1 inhibitors verapamil and CSA; assay type: cell-based, human; settings: 1 µM CSA and 10 µM verapamil, 72 h
Experimental: For the cytotoxicity, cell viability, and proliferation studies, the 3-(4,5-dimethylthiazol-2-yl)-2,5-diphenyltetrazolium bromide (MTT) assay was utilized. Cells were seeded in 96-well plates at a density of 2 × 10^4 cells/well, with the exception of SW480/Tria, which was used at a density of 3 × 10^4 cells/well. After 24 h of recovery, cells were treated with the indicated concentration of drugs. For the drug combination experiments, verapamil and cyclosporine A (CSA) were used as […] modulators, and tetrathiomolybdate (TTM) was used as a copper chelator. The TSCs were dissolved in DMSO followed by subsequent dilutions in the medium in order to maintain a final DMSO concentration of <1%. After 72 h, the treatment solution was removed and replaced with 100 µL of MTT solution (EZ4U, Biomedica, Vienna, Austria), which was diluted 1:10 in the growth medium. A TECAN Infinite 200 Pro plate reader was used to measure the absorbance of the solution after 2–3 h incubation at 5% CO2 in an incubator at 37 °C. The anticancer activity was determined with GraphPad Prism software and indicated as IC50 values (half maximum inhibitory concentration).

[2] = system: SW480 cells; experiment: Detection of paraptotic vesicles (phase contrast microscopy); assay type: cell-based, human; settings: 24 h
Experimental: SW480 and SW480/Coti cells were seeded at a density of 2 × 10^4 per well in 24-well plates and left to recover for 24 h. This was followed by drug treatment at the indicated concentration for 24 h. Images were captured with phase contrast using a Nikon eclipse Ti-e fluorescence microscope and a DS Fi1c camera. Cells containing vesicles were counted in ImageJ and plotted in GraphPad Prism as the percentage of all cells.

[3] = system: GLC-4 cells; set-up: method as in PMID 33190481; settings: 72 h, MTT; cited from earlier work
[4] = system: GLC-4/adr cells (ABCC1-overexpressing); set-up: method as in PMID 33190481; settings: cited from earlier work

SMILES	impact of verapamil and CSA on activity [1]	cells presenting paraptotic features ([2]; 0.1 µM)	cells presenting paraptotic features ([2]; 1 µM)	IC50 [3]	IC50 ([4]; 72 h, MTT)	Relative Resistance GLC-4/adr ([4]; IC50 of GLC-4/adr divided by IC50 of parental GLC-4)
CN(C)C(=S)NN=C1CCCc2cccnc21 (mixture of isomers) [COTI-NMe2, 2-(6,7-Dihydroquinolin-8(5H)-ylidene)-N^4,N^4-dimethylhydrazine-1-carbothioamide]	no relevant impact	100%	100%			
S=C(N/N=C1\CCCc2cccnc21)N1CCN(c2ccccn2)CC1 [COTI-2, 4-(pyridine-2-yl)-N-([(8E)-5,6,7,8-tetrahydroquinolin-8-ylidene]amino)piperazine-1-carbothioamide]				30 ± 10 nM	480 ± 150 nM	17.3 *
